Measured values: PubChem BioAssay AID1845202 (Molecular Pharmacology Branch, DTP, NCI, 2023)
Values joined by “and” are separate entries in the source; they are usually repeats but may differ in a detail not shown here. Identical values can stand only once.

System: DMS 114 tumor spheroids, viability % test/control
Test: Anticancer human tumor DMS 114 cell line growth inhibition;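 note: spheroids exposed to compounds for 7 days before read-out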;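 for viability, T/C: luminescence used as a proxy for viable cells; 100% = DMSO vehicle control viability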
Settings: spheroids with HUVEC and MSC; for viability, T/C: stronger effect = lower value
Excerpt: Multicellular complex tumor spheroid response to DNA repair inhibitors in combination with DNA-damaging drugs
This study explores the anticancer activities of DNA-damaging drugs and inhibitors of DNA damage repair, both as single agents and in combinations. Complex tumor spheroids comprised of malignant cells, endothelial cells and mesenchymal stem cells served as an in vitro model for human solid tumors. This model system incorporates physiologically relevant features and patient-derived or established malignant cell lines with clinically relevant genetic alterations from many tumor types. Twenty-six patient-derived or established malignant cell lines were evaluated representing sarcoma, melanoma, small cell lung cancer (SCLC), non-small cell lung cancer (NSCLC), as well as bladder, ovarian and pancreatic cancers. The concentration ranges selected for each drug and investigational agent were based upon clinically achievable concentrations if the clinical Cmax of the agent was known.
Compounds. The drugs and compounds olaparib (NSC753686), talazoparib (NSC767125), berzosertib (NSC777718), elimusertib (NSC800525), nedisertib (NSC802822), VX-984 (NSC792969), AZD-1390 (NSC803789), temozolomide (NSC362856), topotecan (NSC609699), trabectedin (NSC813783), staurosporine (NSC755774), and gemcitabine (NSC613327) were obtained from the National Cancer Institute (NCI) Developmental Therapeutics Program Chemical Repository. The FDA-approved anticancer drug set is available from the Developmental Therapeutics Program at https://dtp.cancer.gov/organization/dscb/obtaining/available_plates.htm. […] The stock solutions were prepared in dimethyl sulfoxide (DMSO, Sigma-Aldrich, St. Louis, MO, cat. D2650) at 400-fold the tested concentration and stored at -70 degrees C. Prior to their use, the stock solutions were diluted in fresh medium and the final DMSO concentration in the assay was 0.25% (v/v). All drugs and investigational agents were tested over a range starting from a high concentration at or near the clinical Cmax and decreasing in half-log increments. If the clinical Cmax for an agent had not been determined, the highest concentration tested was 10 microM.
Cell Lines. The patient-derived cancer cell (PDC) lines: 156681-154-R-J1-PDC, 283228-195-R-J1-PDC, 287954-098-R-J1-PDC, 292921-168-R-J2-PDC, 349418-098-R-PDC, 425362-245-T-J1-PDC, 556581-035-R-J1-PDC, and BL0293-F563-PDC were received from the NCI Patient-Derived Models Repository (PDMR, https://pdmr.cancer.gov). The established cell lines HS-SY-2 (RRID:CVCL_8719), MPNST, and SYO-1 (RRID:CVCL_7146) were obtained from the Sloan Kettering Institute. The alveolar soft parts sarcoma cell line ASPS-1 (RRID:CVCL_S738) was established at the NCI and grown from internal seed stocks. The following established cell lines were purchased from the American Type Culture Collection (ATCC, Manassas, VA): G-401 (ATCC, cat. CRL-1441, RRID:CVCL_0270), SW982 (ATCC, cat. HTB-93, RRID:CVCL_1734), VA-ES-BJ (ATCC, cat. CRL-2138, RRID:CVCL_1785), NCI-H719 (ATCC, cat. CRL-5837, RRID:CVCL_1582), NCI-H196 (ATCC, cat. CRL-5823, RRID:CVCL_1509), NCI-H841 (ATCC, cat. CRL-5845, RRID:CVCL_1595), NCI-H1618 (ATCC, cat. CRL-5879, RRID:CVCL_1480), NCI-H1876 (ATCC, cat. CRL-5902, RRID:CVCL_1503), DMS 114 (ATCC, cat. CRL-2066; RRID:CVCL_1174), NCI-H211 (ATCC, cat. CRL-5824; RRID:CVCL_1529), and SW 1271 (ATCC, cat. CRL-2177, RRID:CVCL_1716). The small cell lung cancer cell line COR-L88 was purchased from Sigma-Aldrich (cat. 92031917-1VL, RRID:CVCL_1141). The non-small cell lung cancer cell lines NCI-H226 (RRID:CVCL_1544) and NCI-H322M (RRID:CVCL_1557) were established at the NCI and grown from internal seed stocks. Pooled donor human umbilical vein endothelial cells (HUVEC, Lonza, cat. CC-2519) and human mesenchymal stem cells (hMSC, Lonza, cat. PT-2501) were purchased from Lonza (Walkersville, MD).
Cell Culture. All cells were maintained in an incubator at 37 degrees C and 5% CO2 with 95% humidity. […]

`O=C(c1cc(Cc2n[nH]c(=O)c3ccccc23)ccc1F)N1CCN(C(=O)C2CC2)CC1` + COc1cc2c(cc1O)CCNC21CSC2c3c(OC(C)=O)c(C)c4c(c3C(COC1=O)N1C(O)C3Cc5cc(C)c(OC)c(O)c5C(C21)N3C)OCO4 was tested, and the IC50 (curve of first compound, second compound 30 pM) was 5.54 µM, the IC50 (curve of first compound, second compound 94.9 pM) was 3.67 µM and the IC50 (curve of first compound, second compound 0.0003 µM) was less than 0.0949 µM. The IC50 (curve of first compound, second compound 0.000949 µM) was less than 0.0949 µM, the IC50 (curve of first compound, second compound 0.003 µM) was less than 0.0949 µM and the viability, T/C (second compound 30 pM, first compound 0.0949 µM) was 106%. For the same compound, the viability, T/C (second compound 30 pM, first compound 0.3 µM) was 103%, the viability, T/C (second compound 30 pM, first compound 0.949 µM) was 97.1% and the viability, T/C (second compound 30 pM, first compound 3 µM) was 83.8%. For the same compound, the viability, T/C (second compound 30 pM, first compound 9.49 µM) was 20.2%, the viability, T/C (second compound 30 pM, first compound 30 µM) was 17.4% and the viability, T/C (second compound 94.9 pM, first compound 0.0949 µM) was 92.3%. The viability, T/C (second compound 94.9 pM, first compound 0.3 µM) was 94.6%, the viability, T/C (second compound 94.9 pM, first compound 0.949 µM) was 88.1% and the viability, T/C (second compound 94.9 pM, first compound 3 µM) was 57.2%. It also gave a viability, T/C (second compound 94.9 pM, first compound 9.49 µM) of 17.3%, a viability, T/C (second compound 94.9 pM, first compound 30 µM) of 13.7% and a viability, T/C (second compound 0.0003 µM, first compound 0.0949 µM) of 29.5%. The viability, T/C (second compound 0.0003 µM, first compound 0.3 µM) was 21.9%, the viability, T/C (second compound 0.0003 µM, first compound 0.949 µM) was 23.2% and the viability, T/C (second compound 0.0003 µM, first compound 3 µM) was 14.8%. It also gave a viability, T/C (second compound 0.0003 µM, first compound 9.49 µM) of 7.77%, a viability, T/C (second compound 0.0003 µM, first compound 30 µM) of 7.92% and a viability, T/C (second compound 0.000949 µM, first compound 0.0949 µM) of 3.19%. For the same compound, the viability, T/C (second compound 0.000949 µM, first compound 0.3 µM) was 2.4%, the viability, T/C (second compound 0.000949 µM, first compound 0.949 µM) was 2.21% and the viability, T/C (second compound 0.000949 µM, first compound 3 µM) was 2.86%. It also gave a viability, T/C (second compound 0.000949 µM, first compound 9.49 µM) of 1.24%, a viability, T/C (second compound 0.000949 µM, first compound 30 µM) of 0.5% and a viability, T/C (second compound 0.003 µM, first compound 0.0949 µM) of 0.24%. The viability, T/C (second compound 0.003 µM, first compound 0.3 µM) was 0.22%, the viability, T/C (second compound 0.003 µM, first compound 0.949 µM) was 0.19% and the viability, T/C (second compound 0.003 µM, first compound 3 µM) was 0.2%. It also gave a viability, T/C (second compound 0.003 µM, first compound 9.49 µM) of 0.19% and a viability, T/C (second compound 0.003 µM, first compound 30 µM) of 0.4%.
With `O=C(c1cc(Cc2n[nH]c(=O)c3ccccc23)ccc1F)N1CCN(C(=O)C2CC2)CC1` the viability, T/C (compound 0.0949 µM) was 105% and 104% and 97.3%, the viability, T/C (compound 0.3 µM) was 104% (2×) and 102% and the viability, T/C (compound 0.949 µM) was 107% and 98.7% and 106%. For the same compound, the viability, T/C (compound 3 µM) was 109% and 107% and 102%, the viability, T/C (compound 9.49 µM) was 70.7% and 53.2% and 55.8% and the viability, T/C (compound 30 µM) was 48.5% and 29.6% and 26.8%. For the same compound, the IC50 (curve of compound) was 27.7 µM and 11.1 µM and 12 µM.
With `CC(C)n1c(=O)n(C)c2cnc3cc(F)c(-c4ccc(OCCCN5CCCCC5)nc4)cc3c21` the viability, T/C (compound 0.0316 µM) was 106% and 99.8% and 105%, the viability, T/C (compound 0.1 µM) was 104% and 103% and 107% and the viability, T/C (compound 0.316 µM) was 101% and 97.2% and 106%. The viability, T/C (compound 1 µM) was 97.8% and 102% and 93.4%, the viability, T/C (compound 3.16 µM) was 70.1% and 88% and 73.8% and the viability, T/C (compound 10 µM) was 22.5% and 34.4% and 22.6%. The IC50 (curve of compound) was 5.15 µM and 7.21 µM and 5.37 µM.
